Laboratory results published in paper PMC9313812, “The Pseudo‐Natural Product Rhonin Targets RHOGDI” (Angewandte Chemie (International Ed. in English), 2022).

These molecules were tested on C3H/10T1/2 cells (assay: Osteoblast differentiation assay (ODA): purmorphamine-induced osteogenesis, alkaline phosphatase luminescence readout). Details: C3H/10T1/2 cells, purmorphamine.
Assay type: cell-based, mouse
Set-up: key to Osteogenesis IC50: Compounds are marked inactive when no inhibition was observed at the highest test concentration of 30 µM
Experimental: Supplementary Table S7. Inhibition of osteogenesis assay. C3H10T1/2 cells were incubated with 1.5 µM purmorphamine and compounds or DMSO as a control for 96 h. The activity of alkaline phosphatase was assessed by means of a luminescence readout. Values for cells, which were treated with DMSO and purmorphamine, were set to 100% and data were measured in […]
concentration of 30 µM. All data are mean values of three independent experiments (n = 3) ± […]
Compound Osteogenesis IC50
(1 picture or pasted object on this page, not shown here)
NIH/3T3 cells were obtained from DSMZ, Germany (DSMZ ACC 59) and were cultured in DMEM (high glucose) supplemented with 10% heat-inactivated FCS, 2 mM L -glutamine and 1 mM sodium pyruvate. Shh -LIGHT2 cells (NIH/3T3 cells stably transfected with a Gli-responsive firefly luciferase reporter plasmid and a pRL-TK constituitive Renilla luciferase expression vector)[4] were cultured in the same culturing medium supplemented with 400 μg ml −1 G418 and 150 μg ml −1 Zeocin as selecting agents. The murine osteoblasts C3H/10T1/2 (ATCC CCL-226) were obtained from ATCC, USA and were cultured in DMEM (high glucose) supplemented with 10% heat-inactivated FCS, 6 mM L -glutamine, 1 mM sodium pyruvate. HEK293T cells (ATCC, England) were grown in DMEM containing 10% FBS, 100 U ml −1 penicillin and 0.1 mg ml −1 streptomycin. All cell lines were maintained at 37 °C and 5% CO 2 in a humidified atmosphere. All the cell lines were regularly assayed for mycoplasma and were confirmed to be mycoplasma-free. Transfection of DNA constructs and siRNAs were performed using FuGENE HD (Promega), Lipofectamine® LTX (Invitrogen) and DharmaFECT™ (GE Healthcare) transfection reagent according to the manufacturer’s […]
Osteoblast differentiation assay
The osteoblast differentiation assay was performed by the Compound Management and Screening Center (COMAS) in Dortmund, Germany. C3H/10T1/2 cells were seeded (800 per well) in white 384-well plates or (6000 per well) in 96-well plates. After incubation for 16 h, compounds or DMSO were added to the cells using the acoustic nanoliter dispenser ECHO 520 (Labcyte) and osteogenesis was induced with 1.5 µM purmorphamine. Plates were incubated for 96 h at 37 °C and 5% CO2. Alkaline phosphatase activity was measured by replacing the medium with osteogenesis-lysis buffer (lysis buffer: 100 mM Tris pH 9.5, 250 mM NaCl, 25 mM MgCl2, 1% Triton X-100, sterile filtered) containing 1:100 chemiluminescent substrate CDP-Star® (Promega, 384-well plates: 35 µL, 96-well plates: 50 µL) for one hour in the dark at 25 °C. In 384-well plates, the luminescence was monitored using the Paradigm plate reader (Molecular Devices, USA), whereas Spark plate reader (Tecan, Austria) was used to measure luminescence in 96-well plates. Dose-response analyses were performed for all hit compounds […]
using a three-fold dilution series starting from a concentration of 30 μM. Half-maximal inhibitory concentrations (IC50) were calculated using the Quattro software suite (Quattro Research, Planegg, Germany) or GraphPad Prism 7 (GraphPad, USA).
The effect of test compounds on the viability of C3H/10T1/2 cells was determined by CellTiter-Glo Luminescence cell viability assay (Promega). Cells were treated as described for the osteogenesis assay prior to addition of the CellTiter-Glo® reagent according to manufacturer’s protocol. Compounds causing at least a 50% reduction in the osteogenesis assay and retaining cell viability of at least 80% were considered as hits. Dose-response analyses were performed for all hit compounds using a three-fold dilution series starting from a concentration of 30 μM. Half-maximal inhibitory concentrations (IC50) were calculated using the Quattro software suite (Quattro Research GmbH). […]

Structure (SMILES)	Inhibition of Hh-/purmorphamine-induced osteogenesis (in words)
COC(=O)C1(C(CC(=O)c2ccc(Br)cc2)c2ccccc2)N=C(c2ccc(Br)cc2)C2C(=O)N(C)C(=O)C21 (stereo not drawn) [7b]	abolished activity
COC(=O)C1(CCC(C)=O)N=C(c2ccc(Br)cc2)C2C(=O)N(c3ccccc3)C(=O)C21 (stereo not drawn) [7f]	activity was lost

Same assay, conditions: Mus musculus, C3H 10T1/2; Table S13; Rac, Cdc42 and ROCK inhibitors; 1.5 µM purmorphamine, 96 h; n=3; read-out: Osteogenesis IC50 ± SD

Structure (SMILES)	IC50
COc1cc(C2=NC(C)=C(C(=O)Nc3ccc4[nH]ncc4c3)C(c3ccc(Cl)cc3F)N2)ccn1 (stereo not drawn) [GSK534911A, reference compound]	1550 ± 500 nM
CN(C)CCOc1cc(-c2cn[nH]c2)ccc1NC(=O)C1COc2ccccc2O1 (stereo not drawn) [SR-3677, reference compound]	1720 ± 100 nM

Same assay, conditions: Table S7; 1.5 µM purmorphamine, 96 h; mean ± SD, n=3; highest test concentration 30 µM

Structure (SMILES)	Osteogenesis IC50
COC(=O)C12NC(c3ccc(Br)cc3)(C3C(=O)N(C)C(=O)C31)C1C(=O)N(c3ccccc3)C(=O)C12 (stereo not drawn) [5a]	inactive
COC(=O)C12NC(c3ccc(C)cc3)(C3C(=O)N(C)C(=O)C31)C1C(=O)N(c3ccccc3)C(=O)C12 (stereo not drawn) [5b]	inactive
COC(=O)c1ccc(C23NC(C(=O)OC)(C4C(=O)N(C)C(=O)C42)C2C(=O)N(c4ccccc4)C(=O)C23)cc1 (stereo not drawn) [5c]	inactive
COC(=O)C12NC(c3ccc(Cl)cc3)(C3C(=O)N(C)C(=O)C31)C1C(=O)N(c3ccccc3)C(=O)C12 (stereo not drawn) [5d]	inactive
CCCN1C(=O)C2C(C1=O)C1(c3ccc(Br)cc3)NC2(C(=O)OC)C2C(=O)N(c3ccccc3)C(=O)C21 (stereo not drawn) [5e]	inactive
COC(=O)C12NC(c3ccc(Br)cc3)(C3C(=O)N(c4ccccc4)C(=O)C31)C1C(=O)N(C3CCCCC3)C(=O)C12 (stereo not drawn) [5f]	inactive
COC(=O)C1(C2CC(=O)N(c3ccccc3)C2=O)N=C(c2ccc(Br)cc2)C2C(=O)N(C)C(=O)C21 (stereo not drawn) [6a]	inactive
COC(=O)C1(C2CC(=O)N(c3ccccc3)C2=O)N=C(c2ccc(C(F)(F)F)cc2)C2C(=O)N(C)C(=O)C21 (stereo not drawn) [6b]	inactive
COC(=O)C1(C2CC(=O)N(c3ccccc3)C2=O)N=C(c2ccc(F)cc2)C2C(=O)N(C)C(=O)C21 (stereo not drawn) [6c]	inactive
COC(=O)C1(C2CC(=O)N(c3ccccc3)C2=O)N=C(c2ccc(C(C)(C)C)cc2)C2C(=O)N(C)C(=O)C21 (stereo not drawn) [6d]	inactive
COC(=O)C1(C2CC(=O)N(c3ccccc3)C2=O)N=C(c2cccc(OC)c2)C2C(=O)N(C)C(=O)C21 (stereo not drawn) [6e]	inactive
COC(=O)C1(C(CC(=O)c2ccc(Br)cc2)c2ccccc2)N=C(c2ccc(Br)cc2)C2C(=O)N(C)C(=O)C21 (stereo not drawn) [7b]	inactive
COC(=O)C1(CCC(C)=O)N=C(c2ccc(Br)cc2)C2C(=O)N(c3ccccc3)C(=O)C21 (stereo not drawn) [7f]	inactive
COC(=O)C=C(C(=O)OC)C1(C(=O)OC)N=C(c2ccc(Br)cc2)C2C(=O)N(C)C(=O)C21 (stereo not drawn) [7h]	inactive
COC(=O)C=C(C(=O)OC)C1(C(=O)OC)N=C(c2ccc(Br)cc2)C2C(=O)N(c3ccccc3)C(=O)C21 (stereo not drawn) [7i]	inactive
COC(=O)[C@@]1([C@H](CC(=O)c2ccc(Br)cc2)c2ccc(C(=O)NCCOCCOCCNC(=O)OC(C)(C)C)cc2)N=C(c2ccc(Br)cc2)[C@H]2C(=O)N(C)C(=O)[C@H]21 [S10b]	inactive

Same assay, conditions: Table S13; 2 µM; DMSO + purmorphamine = 100%

Structure (SMILES)	Osteogenesis, activity at 2 µM
Cc1cc(C)nc(NS(=O)(=O)c2ccc(NC(=S)NC(=O)COc3ccc(Br)cc3Cl)cc2)n1 [ZCL278, reference compound]	75%

Same assay, conditions: Table S13; Rac, Cdc42 and ROCK inhibitors; 1.5 µM purmorphamine, 96 h; n=3; read-out: Osteogenesis IC50 ± SD

Structure (SMILES)	IC50
O=c1cc(CN2CCOCC2)occ1OCCCCCSc1ccnc2cc(C(F)(F)F)ccc12 [EHT 1864, reference compound]	> 2000 nM
CCn1c2ccccc2c2cc(Nc3ccnc(NCCCN4CCOCC4)n3)ccc21 [EHop-016, reference compound]	881 ± 80 nM
Cc1cncc2cccc(S(=O)(=O)N3CCCNC[C@@H]3C)c12 [H-1152, reference compound]	2870 nM
